Results published in paper PMC8041284, “Tunable Methacrylamides for Covalent Ligand Directed Release Chemistry” (Journal of the American Chemical Society, 2021).
Like-named read-outs stand apart in the source and are kept apart here. Where a SMILES comes first, the peptide text is derived from it. The star is where a group is joined. Cbz = O=C(OCc1ccccc1)*

Target: BTK (Homo sapiens, UniProt Q06187)
Assay: biochemical
[1] = read-out: BTK inhibition (%), 0.75 uM BTK, […] probe 3l, 15 min preincubation

BTK, sequence (Q06187 402-655 limits assumed): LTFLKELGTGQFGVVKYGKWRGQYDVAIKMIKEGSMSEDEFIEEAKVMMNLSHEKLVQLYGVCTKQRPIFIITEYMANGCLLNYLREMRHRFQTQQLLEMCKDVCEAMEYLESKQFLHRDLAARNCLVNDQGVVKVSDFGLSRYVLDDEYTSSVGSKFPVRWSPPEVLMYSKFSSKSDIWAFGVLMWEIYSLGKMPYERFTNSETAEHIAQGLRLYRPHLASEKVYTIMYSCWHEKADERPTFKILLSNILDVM

SMILES | inhibition at 10 µM [1] [%] | inhibition at 10 µM (read-out: BTK inhibition (%)) [%]
CCCNC(C)C(=O)Nc1c(C)csc1C(=O)OC (stereo not drawn) [PCM-0086324] | -13.2 | –
CCN(CC)C(=S)SSC(=S)N(CC)CC [PCM-0064895] | -5.5 | –
NS(=O)(=O)c1cc(Cl)c(Cl)c(S(N)(=O)=O)c1 [PCM-0086380] | -4.7 | –
O=[N+]([O-])c1ccc(Sc2cccc[n+]2[O-])c2nonc12 [PCM-0215705] | 73.4 | –
COC(=O)C1=CO[C@@H](O[C@@H]2O[C@H](CO)[C@@H](O)[C@H](O)[C@H]2O)[C@@H]2[C@H](C)O[C@@H](O)C[C@H]12 [PCM-0216177] | -19.3 | –
O=c1c(-c2ccc(O)cc2)coc2cc(O)cc(O)c12 [PCM-0065176] | 16.6 | –
O=C(O)c1cccnc1 [PCM-0086368] | 3.1 | –
Cc1cc(C)n(C)n1 [PCM-0215908] | -6.9 | –
C/C(=C\c1csc(C)n1)[C@@H]1C[C@@H]2O[C@]2(C)CCC[C@H](C)[C@H](O)[C@@H](C)C(=O)C(C)(C)[C@@H](O)CC(=O)O1 [PCM-0094998] | -9.3 | –
Clc1ccc2c(N3CCN(CCCN4CCN(c5ccnc6cc(Cl)ccc56)CC4)CC3)ccnc2c1 [PCM-0216142] | -5.1 | –
Cc1cc(Nc2ncnc3ccc(-c4ccc(CNCCS(C)(=O)=O)o4)cc23)ccc1Oc1ccn2ncnc2c1 [PCM-0095494] | -21.4 | –
O=c1[nH]c(=O)c2[nH]cnc2[nH]1 [PCM-0214891] | -10.9 | –
O=C(c1ccc(F)cc1)N1CCC[C@H](c2nc(-c3ccc(F)cc3)no2)C1 [PCM-0095385] | -13.2 | –
c1cc(-c2cnn3cc(-c4ccc(N5CCNCC5)cc4)cnc23)c2cccnc2c1 [PCM-0095784] | 3.9 | –
CCOC(=O)C1=C(C)NC(C)=C(C(=O)OC)C1c1cccc([N+](=O)[O-])c1 (stereo not drawn) [PCM-0064714] | -28 | –
OC[C@@H](O)[C@@H](O[C@H]1O[C@H](CO)[C@@H](O)[C@H](O)[C@H]1O)[C@H](O)[C@@H](O)CO [PCM-0215074] | -16.3 | –
COc1ccc(-c2cnc3c(-c4cccc5ncccc45)cnn3c2)cc1 [PCM-0215297] | -2.3 | –
O=C(O[C@@H]1Cc2c(O)cc(O)cc2O[C@H]1c1cc(O)c(O)c(O)c1)c1cc(O)c(O)c(O)c1 [PCM-0216357] | 40.9 | –
Cn1c(=O)c2c(ncn2CC(O)CO)n(C)c1=O (stereo not drawn) [PCM-0085824] | 0.8 | –
CC(C)C[C@@H](C=O)NC(=O)[C@H](CC(C)C)NC(=O)[C@H](CC(C)C)NC(=O)OCc1ccccc1 [PCM-0095809] (Cbz-Leu-Leu-Leu-aldehyde) | 5.4 | –
COc1cc(C2Oc3cc(C4Oc5cc(O)cc(O)c5C(=O)C4O)ccc3OC2CO)ccc1O (stereo not drawn) [PCM-0094811] | 66.1 | –
C#Cc1cccc(Nc2ncnc3cc(OCCOC)c(OCCO)cc23)c1 [PCM-0095242] | 31 | –
CC(C)=CCC[C@](C)(O)[C@H]1CC[C@]2(C)[C@@H]1[C@H](O)C[C@@H]1[C@@]3(C)CC[C@H](O)C(C)(C)[C@@H]3[C@@H](O[C@@H]3O[C@H](CO)[C@@H](O)[C@H](O)[C@H]3O)C[C@]12C [PCM-0216412] | -10.8 | –
O=C(c1ccc(OCCCc2cnc[nH]2)cc1)C1CC1 [PCM-0065087] | -14.5 | –

SMILES | inhibition at 10 µM [1] [%] | inhibition at 10 µM (read-out: BTK inhibition (%)) [%]
NCCc1ccc(O)c(O)c1 [PCM-0065130] | -2.3 | –
COc1cc([C@H]2Oc3cc([C@H]4Oc5cc(O)cc(O)c5C(=O)[C@@H]4O)ccc3O[C@@H]2CO)ccc1O [PCM-0088703] | 24.1 | –
C=C[C@](C)(O)CC[C@@H]1[C@@]2(C)CCCC(C)(C)[C@@H]2CC[C@@]1(C)O [PCM-0094807] | -25.7 | –
CCOc1nc2cccc(C(=O)O)c2n1Cc1ccc(-c2ccccc2-c2noc(=O)[nH]2)cc1 [PCM-0095534] | -3.1 | –
C[C@@H]1CC[C@@]2(OC1)O[C@H]1C[C@H]3[C@@H]4CC=C5C[C@@H](O)C[C@@H](O)[C@]5(C)[C@H]4CC[C@]3(C)[C@H]1[C@@H]2C [PCM-0216451] | -20.8 | –
CCCCCC/C=C\CCCCCCCc1cccc(O)c1C(=O)O [PCM-0216327] | 84.2 | –
CCCCCCCCOc1ccccc1C(=O)Nc1ccc(C(=O)OCC[N+](C)(CC)CC)cc1 [PCM-0095536] | -64.6 | –
Oc1ccc(Nc2nc(-c3ccc(Cl)cc3)cs2)cc1 [PCM-0095692] | 84.8 | –
Cc1onc(-c2c(Cl)cccc2Cl)c1C(=O)N[C@@H]1C(=O)N2[C@@H]1SC(C)(C)[C@@H]2C(=O)O [PCM-0214747] | 9.3 | –
C[C@]12C=CC(=O)C=C1CC[C@@H]1[C@@H]2[C@@H](O)C[C@@]2(C)[C@H]1CC[C@]2(O)C(=O)CO [PCM-0085835] | -7 | –
O=C1CC[C@@]2(O)[C@H]3Cc4ccc(O)c5c4[C@@]2(CCN3CC2CC2)[C@H]1O5 [PCM-0085829] | -24.1 | –
CCCc1cc(-c2nc(-c3ccc(C)cc3)cs2)ccn1 [PCM-0215677] | 6.9 | –
N#CC[C@H](C1CCCC1)n1cc(-c2ncnc3[nH]ccc23)cn1 [PCM-0095031] | 28.3 | –
CN(C)C(=S)NN=C(c1ccccn1)c1ccccn1 [PCM-0215522] | 20.1 | –
COc1ccc([C@@H]2CC(=O)c3c(O)cc(O[C@@H]4O[C@H](CO[C@@H]5O[C@@H](C)[C@H](O)[C@@H](O)[C@H]5O)[C@@H](O)[C@H](O)[C@H]4O)cc3O2)cc1OC [PCM-0215169] | 5.4 | –
CC1(C)CC[C@]2(NC(=O)C(C)(F)F)CC[C@]3(C)[C@H](C(=O)C=C4[C@@]5(C)C=C(C#N)C(=O)C(C)(C)[C@@H]5CC[C@]43C)[C@@H]2C1 [PCM-0215505] | -10 | –
CC1(C)Cc2c(sc(NC(=O)c3ccn[nH]3)c2C(N)=O)C(C)(C)O1 [PCM-0216042] | 1.5 | –
COc1cc2c(c(O)c1OC)-c1c(cc(OC)c(OC)c1OC)C[C@@H](C)[C@@H](C)C2 [PCM-0216483] | 23.9 | –
O=C(/C=C/c1ccccc1)OCc1ccccc1 [PCM-0215962] | 6.9 | –
CN[C@@H]1[C@@H](O[C@H]2O[C@H](CO)[C@@H](N)[C@H](O)[C@H]2O)O[C@H]2C[C@@H](N)[C@@H](O[C@H]3[C@H](O)[C@@H](O)[C@H](N)C[C@@H]3N)O[C@@H]2[C@@H]1O [PCM-0215222] | 8.5 | –
CC[C@H]1OC(=O)[C@H](C)[C@@H](O[C@H]2C[C@@](C)(OC)[C@@H](O)[C@H](C)O2)[C@H](C)[C@@H](O[C@@H]2O[C@H](C)C[C@H](N(C)C)[C@H]2O)[C@](C)(O)C[C@@H](C)C(=O)[C@H](C)[C@@H](O)[C@]1(C)O [PCM-0216070] | 10 | –
Cc1cc(C(=O)O)n[nH]1 [PCM-0216163] | -0.8 | –
CC1(C)[C@@H](OC(=O)CCC(=O)O)CC[C@]2(C)[C@H]3C(=O)C=C4[C@@H]5C[C@@](C)(C(=O)O)CC[C@]5(C)CC[C@@]4(C)[C@]3(C)CC[C@@H]12 [PCM-0215252] | 26.5 | –
NCC(O)c1ccc(O)cc1 (stereo not drawn) [PCM-0064912] | 2.3 | –

SMILES | inhibition at 10 µM [1] [%] | inhibition at 10 µM (read-out: BTK inhibition (%)) [%]
CC(=O)Oc1ccc(C(=C2CCCCC2)c2ccc(OC(C)=O)cc2)cc1 [PCM-0216241] | -3.9 | –
CCCN(CCC)C(=O)C1=Cc2ccc(-c3ccc(C(=O)N4CCCC4)cc3)cc2N=C(N)C1 [PCM-0215564] | -10.3 | –
COc1ncnc(NS(=O)(=O)c2ccc(N)cc2)c1OC [PCM-0086280] | 0.8 | –
CCCCC(CC)COC(=O)C(C#N)=C(c1ccccc1)c1ccccc1 (stereo not drawn) [PCM-0215898] | 0 | –
O=c1cc(-c2ccc(O)c(O)c2O)oc2ccccc12 [PCM-0215990] | 34 | –
CN1CCC(=C2c3ccccc3CC(=O)c3sccc32)CC1 [PCM-0065580] | 10.3 | –
CCCCc1oc2ccccc2c1C(=O)c1cc(I)c(OCCN(CC)CC)c(I)c1 [PCM-0064561] | 75.5 | –
Cc1nnc(NS(=O)(=O)c2ccc(N)cc2)s1 [PCM-0086420] | -10.9 | –
O=c1cccc2n1C[C@@H]1CNC[C@H]2C1 [PCM-0094836] | -10.1 | –
CNC(=O)c1nn(C)c2c1C(C)(C)Cc1cnc(Nc3ccc(N4CCN(C)CC4)cc3)nc1-2 [PCM-0095492] | 44.1 | –
CN[C@H](CC(C)C)C(=O)N[C@H]1C(=O)N[C@@H](CC(N)=O)C(=O)N[C@H]2C(=O)N[C@H]3C(=O)N[C@H](C(=O)N[C@H](C(=O)O)c4cc(O)cc(O)c4-c4cc3ccc4O)[C@H](O)c3ccc(c(Cl)c3)Oc3cc2cc(c3O[C@@H]2O[C@H](CO)[C@@H](O)[C@H](O)[C@H]2O[C@H]2C[C@](C)(N)[C@H](O)[C@H](C)O2)Oc2ccc(cc2Cl)[C@H]1O [PCM-0064980] | 4.3 | –
CCCCCCCCCCCC1=C(O)C(=O)C=C(O)C1=O [PCM-0095569] | 42.5 | –
CC(=O)OCC(=O)NCCCOc1cccc(CN2CCCCC2)c1 [PCM-0086003] | -3.4 | –
CC(=O)OC/C=C(/C)CCC=C(C)C [PCM-0216620] | 1.5 | –
C[C@H](Cn1cnc2c(N)ncnc21)OCP(=O)(O)O [PCM-0090661] | -11.7 | –
COc1ccc(Cl)cc1C(=O)NCCc1ccc(S(=O)(=O)NC(=O)NC2CCCCC2)cc1 [PCM-0003840] | -65.4 | –
OC[C@H]1O[C@H](OC[C@H]2OC(O)[C@H](O)[C@@H](O)[C@@H]2O)[C@H](O)[C@@H](O)[C@H]1O (stereo partly drawn) [PCM-0215071] | -21.8 | –
CCc1cc(Nc2nccc(-c3c(-c4ccc(OC)c(C(=O)Nc5c(F)cccc5F)c4)nc4ccccn34)n2)c(OC)cc1N1CCC(N2CCN(S(C)(=O)=O)CC2)CC1 [PCM-0095069] | 44.8 | –
CCNC1(C(N)=O)CCN(c2ncnc3c2nc(-c2ccccc2Cl)n3-c2ccc(Cl)cc2)CC1 [PCM-0095601] | -17.9 | –
C=C[C@@]12CN(C)[C@H]3C[C@]14C(=Nc1ccccc14)[C@@H]1C[C@@H]2[C@@H]3CO1 [PCM-0216515] | – | -16.2
CS(=O)(=O)Nc1cc2occ(NC=O)c(=O)c2cc1Oc1ccccc1 [PCM-0216251] | 6.2 | –
Nc1ccc(F)cc1NC(=O)c1ccc(CNC(=O)/C=C/c2cccnc2)cc1 [PCM-0215868] | -5.4 | –
CC1=NN(c2ccccc2)C(=O)C1 [PCM-0006147] | 6.2 | –
COc1cc2c(cc1O)[C@@H](Cc1ccc(O)c(Oc3ccc(C[C@@H]4c5cc(OC)c(OC)cc5CCN4C)cc3)c1)N(C)CC2 [PCM-0216427] | 10.8 | –
